Columns and labels:
[1] = system: HUVECs; assay: Immunofluorescence staining of the microtubule; format: cell-based, human; details: 1 μM, 30 minutes, α-tubulin staining
Description: In order to confirm that test compounds are able to interfere with cells' tubulin cytoskeleton, immunofluorescence staining was performed. The effect of test compounds on the tubulin reorganization was visualised by staining of microtubules using an α-tubulin antibody and the cell nuclei using 4′,6-diamidino-2-phenylindole (DAPI).
The effect of the compounds on the microtubule disruption was examined by staining for α-tubulin. Sterile cover slips were placed in each well of a 6-well plate and 1×10^6 cells/ml (1 ml) HUVECs were seeded and allowed to attach on the cover slips overnight at 37° C. The following day the medium was removed from the wells, replaced by 1 μM of test compounds diluted in medium and incubated for 30 minutes at 37° C. Next, the medium was removed and the cells were fixed in pre-cooled methanol (1 ml) at −20° C. for 30 minutes. Then, the cells were washed twice with 1 ml PBS (5 minutes each time). The primary monoclonal antibody for a-tubulin was diluted in PBS (1:200) and added (1 ml) in each well for 1 h at room temperature (RT). After that, the cells were washed three times with 1 ml PBS and incubated with 1 ml of secondary Alexa Fluor 488 antibody diluted in PBS (1:1000) for 30 minutes at RT in the dark. The cells were washed for a further three times with 1 ml PBS and allowed to air-dry for 10 minutes. The cover slips containing the attached cells were mounted on microscopy slides using ProLong® gold antifade reagent with DAPI (for nuclear staining) and stored at 4° C. until time for analysis. Images were taken using an Olympus FV1000 Point Scanning Confocal Microscope provided by the Department of Biochemistry, TCD. Experiments were performed in duplicate at two independent times. The results were presented as images of the microtubule disruption of endothelial cells.

[2] = system: rat aortic ring cultures; assay: Aortic ring assay (anti-vascular model); format: cell-based; details: for anti-vascular effect on existing microvessel network: 100 nM
Description: The aortic ring assay is an ideal assay for testing the activity of anti-vascular, anti-angiogenic or pro-angiongenic agents. This method was originally developed and modified by Nicosia. The aorta can be excised from mice or rats, cut into ˜1 mm rings and cultured in either basement membrane matrix (matrigel) or collagen gel. Following incubation for several days the rings start to generate outgrowths of branching microvessels which are lined by endothelial cells and supported by pericytes and fibroblasts. The angiogenic response of the aorta is a self-limited process regulated by endogenous growth factors including bFGF [13], VEGF [14], PDGF [15] and angiopoietins.
The rat aorta model is an ex vivo assay which combines advantages of both in vitro and in vivo models. The process of angiogenesis takes place in a defined culture environment which can be easily adapted to different experimental conditions according to the requirement of the study. The cells of the aortic outgrowth have not been modified by repeated passages in culture and thus newly formed microvessels reproduce the characteristics of the vasculature formed during angiogenesis in vivo [17-18]. There is no influx of leukocytes from circulating blood therefore inflammatory complications which affect the interpretation of in vivo assays are minimised. For the purpose of this study, rat aortic ring cultures were used to investigate firstly the anti-vascular and then the anti-angiogenic activity of test compounds.
The successful growth of the aortic rings into a mircovessel network was dependent on several factors including (i) the amount of periaortic fibroadipose tissue left on the ring, (ii) the orientation of the ring, the way which the ring was embedded into the matrigel and (iii) the volume of the matrigel used.
The aortic ring assay is an ex vivo assay which allows the analyst to examine the inhibition/stimulation of angiogenesis as well as the breakdown of existing vasculature. Basement membrane matrix (matrigel) was stored at −20° C. Prior to use, matrigel vial was placed on ice and kept at 4° C. overnight in order to thaw. The matrigel was kept on ice at all times for the duration of the experiment. Aortic rings were obtained by excising the thoracic aorta of 5-10 weeks old Wistar male rats and removing the fibroadipose tissue from the aortic wall. The rings were obtained by cross-sectioning the aorta at ˜1 mm intervals, removed any blood clots by washing several times with EBM-2. Matrigel (80 μl) was placed uniformly in each well of a 12-well plate and the aortic rings were then placed individually in between the matrigel layer with the lumen perpendicular to the surface of the plate. The matrigel solution was allowed to solidify for 30-40 minutes at 37° C. and 1 ml EBM-2 medium (supplemented with 2% FBS and […] streptomycin/penicillin solution) was added to each culture. The aortic rings were kept in a humidified CO2 incubator at 37° C. and fresh medium was replaced three times a week starting from day 3. Once an established microvessel network was developed (day 7-9), test compounds diluted in EBM-2 medium (1 ml) were added to each well and incubated at 37° C. for 24 h. The cultures were monitored for microvessel breakdown over time and images were taken 1 h, 4 h and 24 h after treatment using an Olympus CKX41 inverted microscope. Images were captured with an E-330 SLR camera system and processed using Cell̂ A software. Each compound concentration was tested in duplicate. Results were presented as images showing the microvessel breakdown at each time point.

[3] = system: rat aortic ring cultures; assay: Aortic ring assay (anti-angiogenic effect); format: cell-based
[4] = system: HUVECs; assay: Analysis of endothelial cell morphology; format: cell-based, human; details: for effect on endothelial cell morphology: 40 minutes exposure; for reversibility of the morphology effect: 3 h after drug washout
Description: Tubulin inhibitors are not only known for their anti-mitotic effect but also for their anti-vascular activity. Treatment with such agents was previously shown to cause vascular shutdown independently of a direct cytotoxic effect on tumour cells. […] The 1 h incubation period (after drug washout) aimed to identify any observable morphological changes of endothelial cells; however the 3 h incubation period served to indicate any signs of reversibility of this effect.
The effect of test compounds on endothelial cells' morphology was examined. 1×10^6 cells/ml HUVECs (1 ml) were seeded into 6-well plates and incubated overnight at 37° C. The next day, the medium was removed and replaced by control solutions (0.1% DMSO in medium) and test compounds diluted in fresh medium. The cells were incubated for 40 minutes at 37° C. Following that, each well was washed with medium to remove detached cells and incubated with fresh medium for a further 1 h or 3 h at 37° C. Next, the medium was removed and 0.5% crystal violet solution was prepared in 20% ethanol and 1 ml was added in each well for 15 minutes at RT. The wells were then washed 3 times with d. water (5 minutes each time). Wells were allowed to air dry and cell morphology was examined under an Olympus CKX41 inverted microscope using a x4 objective. Images were captured with an E-330 SLR camera system 1 h and 3 h after the washout of compounds. Digital images were processed using Cell̂ A software (Mason Technology, Ireland). The experiments were performed in triplicate and the results were presented as images of the morphological changes of endothelial cells after 1 h and 3 h of drug washout.

| SMILES | microtubule disruption [1] | anti-vascular effect on existing microvessel network ([2]; 4 h of treatment) | anti-vascular effect on existing microvessel network ([2]; 24 h of treatment) | anti-angiogenic effect (microvessel formation) ([3]; 1 nM) | anti-angiogenic effect (microvessel formation) ([3]; 10 nM) | anti-angiogenic effect (microvessel formation) ([3]; 100 nM) | effect on endothelial cell morphology ([4]; 0.1 μM) | reversibility of the morphology effect [4] | anti-angiogenic effect (microvessel formation) ([3]; 50 nM) | anti-vascular effect on established microvessel network ([2]; 0.1 μM) | anti-vascular effect on established microvessel network ([2]; 1 μM, 24 h incubation) | effect on endothelial cell morphology ([4]; 1 μM) | anti-vascular effect on established microvessel network ([2]; 1 nM) | anti-vascular effect on established microvessel network ([2]; 10 nM) | anti-vascular effect on established microvessel network ([2]; 50 nM, 4 h of treatment) | anti-vascular effect on established microvessel network ([2]; 50 nM, 24 h) |
| --- | --- | --- | --- | --- | --- | --- | --- | --- | --- | --- | --- | --- | --- | --- | --- | --- |
| COc1ccc(C2=CC(=O)CCc3c2cc(OC)c(OC)c3OC)cc1O [Compound 1, (Z)-8,9-dihydro-5-(3-hydroxy-4-methoxyphenyl)-1,2,3-trimethoxybenzo[7]annulen-7-one] | Microtubule disruption was observed | evident changes in the microvessels' structure | greater disruption | no inhibitory effect | significantly (p<0.01) inhibited the formation of microvessels | significantly (p<0.01) inhibited the formation of microvessels | modifying the cells' structure | cells regained their shape |  |  |  |  |  |  |  |  |
| COc1ccc(C2=CC(=O)CCc3c2cc(OC)c(OC)c3OC)cc1N [Compound 28, 2-methoxy-5-(2,3,4-trimethoxy-7-oxo-6,7-dihydro-5H-benzo[7]annulen-9-yl)benzenaminium chloride] | Microtubule disruption was observed | evident changes in the microvessels' structure | greater disruption |  | did not demonstrate a decrease in microvessel formation | complete growth inhibition | modifying the cells' structure | cells regained their shape | complete growth inhibition |  |  |  |  |  |  |  |
| COc1ccc(C2=CC(=O)CCc3c2cc(OC)c(OC)c3OC)cc1OC(=O)C(CC(C)C)NC(=O)C(O)C(N)Cc1ccccc1.Cl (stereo not shown) [Compound 44] | induce microtubule disruption |  |  |  | slight decrease | significant (p<0.05) reduction | minor effect | reversible effect |  | did not result in a clear anti-vascular effect | apparent microvessel breakdown | cell monolayer was disturbed |  |  |  |  |
| COc1ccc(C2=CC(=O)COc3c2cc(OC)c(OC)c3OC)cc1OC(=O)C(CC(C)C)NC(=O)C(O)C(N)Cc1ccccc1.Cl (stereo not shown) [Compound 45, 2-methoxy-5-(7,8,9-trimethoxy-3-oxo-2H-1-benzoxepin-5-yl)phenyl 2-(3-amino-2-hydroxy-4-phenylbutanamido)-4-methylpentanoate] | disruption of microtubule organisation |  |  |  | insignificantly decreased |  | severe effect | did not seem to regain their original shape | almost complete inhibition |  |  | severe effect | did not demonstrate any obvious anti-vascular activity | did not demonstrate any obvious anti-vascular activity | sufficient to disrupt the microvessel network | more evident |

— US20150018566A1, “TUBULIN BINDING AGENTS” (priority 2011, published 2015)
